Measured values from PubChem BioAssay (NCI).
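Tested at 5 concentrations; 48 h exposure; 96-well plates; endpoints linearly interpolated, else capped at highest concentration. GI50 is the concentration that inhibits growth by half. Definition used: TGI = concentration required for complete inhibition of growth.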

How the values were obtained:
Test in all cases: DTP human tumour cell line panel, 48 h
[1] = tested on: HL-60(TB) leukemia
[2] = tested on: NCI-H23 lung
[3] = tested on: DU-145 prostate
[4] = tested on: A549 NSCLC
[5] = tested on: UO-31 renal
[6] = tested on: T-47D breast
[7] = tested on: SK-MEL-5 melanoma
[8] = tested on: BT-549 breast
[9] = tested on: KM12 colon
[10] = tested on: SF-268 CNS
[11] = tested on: OVCAR-8 ovarian
[12] = tested on: 786-0 renal
[13] = tested on: NCI-H460 lung
[14] = tested on: MOLT-4 leukemia
[15] = tested on: PC-3 prostate
[16] = tested on: NCI-H522 lung
[17] = tested on: RPMI-8226 leukemia
[18] = tested on: CCRF-CEM leukemia
[19] = tested on: TK-10 renal
[20] = tested on: SR leukemia
[21] = tested on: SK-OV-3 ovarian
[22] = tested on: OVCAR-4 ovarian
[23] = tested on: EKVX NSCLC
[24] = tested on: ACHN renal
[25] = tested on: HCT-116 colon
[26] = tested on: SK-MEL-2 melanoma
[27] = tested on: HOP-62 NSCLC
[28] = tested on: HCT-15 colon
[29] = tested on: HOP-92 NSCLC
[30] = tested on: MDA-MB-468 breast
[31] = tested on: SK-MEL-28 melanoma
[32] = tested on: UACC-257 melanoma
[33] = tested on: SNB-19 CNS
[34] = tested on: A498 renal
[35] = tested on: OVCAR-5 ovarian
[36] = tested on: U251 CNS
[37] = tested on: RXF 393 renal
[38] = tested on: NCI-H226 lung
[39] = tested on: HT29 colon
[40] = tested on: MDA-MB-231 breast
[41] = tested on: HS 578T breast
[42] = tested on: K-562 leukemia
[43] = tested on: IGROV1 ovarian
[44] = tested on: SNB-75 CNS
[45] = tested on: HCC-2998 colon
[46] = tested on: MDA-MB-435
[47] = tested on: MCF7 breast
[48] = tested on: SN12C renal
[49] = tested on: SW-620 colon
[50] = tested on: CAKI-1 renal
[51] = tested on: OVCAR-3 ovarian
[52] = tested on: UACC-62 melanoma
[53] = tested on: LOX IMVI melanoma
[54] = tested on: COLO 205 colon
[55] = tested on: MALME-3M melanoma
[56] = tested on: SF-539 CNS
[57] = tested on: M14 melanoma
[58] = tested on: NCI/ADR-RES ovarian
[59] = tested on: SF-295 CNS

CC(Nc1ncnc2ccc(-c3ccc4oc(N)nc4c3)cc12)c1ccccc1 (stereo unspecified)
GI50 [1]: 1.87 µM | TGI [1]: 5 µM | GI50 [2]: 3.53 µM | TGI [2]: 14.5 µM | GI50 [3]: 2.91 µM | TGI [3]: 15.6 µM | GI50 [4]: 2.75 µM | TGI [4]: 18.2 µM | GI50 [5]: 1.37 µM | TGI [5]: 4.16 µM | GI50 [6]: 4.06 µM | TGI [6]: 26 µM | GI50 [7]: 2.15 µM | TGI [7]: 5.88 µM | GI50 [8]: 2.62 µM | TGI [8]: 11.3 µM | GI50 [9]: 4.27 µM | TGI [9]: 29 µM | GI50 [10]: 3.91 µM | TGI [10]: 54.7 µM | GI50 [11]: 2.96 µM | TGI [11]: 12.6 µM | GI50 [12]: 2.19 µM | TGI [12]: 8.59 µM | GI50 [13]: 2.34 µM | TGI [13]: 5.91 µM | GI50 [14]: 2.67 µM | TGI [14]: 10.4 µM | GI50 [15]: 4.52 µM | TGI [15]: 17.1 µM | GI50 [16]: 2.83 µM | TGI [16]: 13.4 µM | GI50 [17]: 2.47 µM | TGI [17]: 13.3 µM | GI50 [18]: 2.34 µM | TGI [18]: 10.2 µM | GI50 [19]: 1.57 µM | TGI [19]: 5.51 µM | GI50 [20]: 2.9 µM | TGI [20]: 10.3 µM | GI50 [21]: 2.65 µM | TGI [21]: 8.56 µM | GI50 [22]: 2.14 µM | TGI [22]: 5.16 µM | GI50 [23]: 2.73 µM | TGI [23]: 18.5 µM | GI50 [24]: 1.84 µM | TGI [24]: 4.92 µM | GI50 [25]: 2.06 µM | TGI [25]: 4.78 µM | GI50 [26]: 19.5 µM | TGI [26]: 41.7 µM | GI50 [27]: 1.63 µM | TGI [27]: 4.68 µM | GI50 [28]: 2.85 µM | TGI [28]: 11.7 µM | GI50 [29]: 2.02 µM | TGI [29]: 5.62 µM | GI50 [30]: 1.07 µM | TGI [30]: 2.8 µM | GI50 [31]: 3.54 µM | TGI [31]: 15.1 µM | GI50 [32]: 5.23 µM | TGI [32]: 39.5 µM | GI50 [33]: 3.13 µM | TGI [33]: 14.6 µM | GI50 [34]: 2.3 µM | TGI [34]: 17.3 µM | GI50 [35]: 3.49 µM | TGI [35]: 18.7 µM | GI50 [36]: 2.8 µM | TGI [36]: 11.6 µM | GI50 [37]: 1.98 µM | TGI [37]: 5.87 µM | GI50 [38]: 1.87 µM | TGI [38]: 6.21 µM | GI50 [39]: 4.94 µM | TGI [39]: > 100 µM | GI50 [40]: 2.59 µM | TGI [40]: 6.92 µM | GI50 [41]: 2.04 µM | TGI [41]: 5.86 µM | GI50 [42]: 3.89 µM | TGI [42]: 15.5 µM | GI50 [43]: 1.45 µM | TGI [43]: 3.75 µM | GI50 [44]: 1.45 µM | TGI [44]: 3.61 µM | GI50 [45]: 3.59 µM | TGI [45]: 15.8 µM | GI50 [46]: 3.84 µM | TGI [46]: 19.5 µM | GI50 [47]: 1.59 µM | TGI [47]: 3.57 µM | GI50 [48]: 2.4 µM | TGI [48]: 7.26 µM | GI50 [49]: 4.42 µM | TGI [49]: 18.9 µM | GI50 [50]: 3.52 µM | TGI [50]: 17.1 µM | GI50 [51]: 1.67 µM | TGI [51]: 3.35 µM | GI50 [52]: 3.26 µM | TGI [52]: 11.8 µM | GI50 [53]: 1.62 µM | TGI [53]: 3 µM | GI50 [54]: 5.3 µM | TGI [54]: > 100 µM | GI50 [55]: 1.7 µM | TGI [55]: 3.44 µM | GI50 [56]: 1.91 µM | TGI [56]: 4.78 µM | GI50 [57]: 4.97 µM | TGI [57]: 42.4 µM | GI50 [58]: 3.1 µM | TGI [58]: 11.5 µM | GI50 [59]: 2.82 µM | TGI [59]: 12.9 µM

CC1(C)CC[C@]23CC[C@]4(C)[C@H](CC[C@@H]5[C@@]6(C)CC[C@H](N)C(C)(C)[C@@H]6CC[C@]54C)[C@H]2[C@H]1OC3=O
GI50 [2]: 1.74 µM | TGI [2]: 3.22 µM | GI50 [3]: 1.81 µM | TGI [3]: 3.31 µM | GI50 [5]: 1.51 µM | TGI [5]: 2.87 µM | GI50 [7]: 1.75 µM | TGI [7]: 3.14 µM | GI50 [8]: 1.52 µM | TGI [8]: 2.92 µM | GI50 [9]: 1.82 µM | TGI [9]: 3.41 µM | GI50 [10]: 1.69 µM | TGI [10]: 3.36 µM | GI50 [12]: 1.45 µM | TGI [12]: 2.92 µM | GI50 [13]: 1.64 µM | TGI [13]: 3.17 µM | GI50 [14]: 1.85 µM | TGI [14]: 4.38 µM | GI50 [17]: 2.1 µM | TGI [17]: 5.26 µM | GI50 [19]: 1.7 µM | TGI [19]: 3.49 µM | GI50 [20]: 1.59 µM | TGI [20]: 5.08 µM | GI50 [21]: 12.1 µM | TGI [21]: 37.3 µM | GI50 [22]: 1.94 µM | TGI [22]: 3.86 µM | GI50 [23]: 1.7 µM | TGI [23]: 3.16 µM | GI50 [24]: 1.68 µM | TGI [24]: 3.05 µM | GI50 [25]: 1.6 µM | TGI [25]: 3.05 µM | GI50 [26]: 3.02 µM | TGI [26]: 9.41 µM | GI50 [28]: 1.64 µM | TGI [28]: 3.07 µM | GI50 [29]: 1.59 µM | TGI [29]: 3.15 µM | GI50 [30]: 1.69 µM | TGI [30]: 3.18 µM | GI50 [31]: 1.78 µM | TGI [31]: 3.18 µM | GI50 [32]: 1.8 µM | TGI [32]: 3.43 µM | GI50 [33]: 1.64 µM | TGI [33]: 3.05 µM | GI50 [34]: 1.48 µM | TGI [34]: 3.44 µM | GI50 [35]: 1.65 µM | TGI [35]: 3.02 µM | GI50 [36]: 1.72 µM | TGI [36]: 3.27 µM | GI50 [37]: 1.63 µM | TGI [37]: 3.11 µM | GI50 [38]: 2.15 µM | TGI [38]: 5.47 µM | GI50 [40]: 1.69 µM | TGI [40]: 3.09 µM | GI50 [41]: 1.89 µM | TGI [41]: 4.09 µM | GI50 [42]: 2.53 µM | TGI [42]: > 100 µM | GI50 [43]: 1.68 µM | TGI [43]: 3.1 µM | GI50 [44]: 1.36 µM | TGI [44]: 2.86 µM | GI50 [45]: 1.61 µM | TGI [45]: 3.02 µM | GI50 [46]: 1.6 µM | TGI [46]: 3.11 µM | GI50 [47]: 1.57 µM | TGI [47]: 3.22 µM | GI50 [48]: 1.64 µM | TGI [48]: 3.05 µM | GI50 [49]: 1.44 µM | TGI [49]: 2.86 µM | GI50 [50]: 1.57 µM | TGI [50]: 2.98 µM | GI50 [51]: 1.66 µM | TGI [51]: 3.1 µM | GI50 [52]: 1.73 µM | TGI [52]: 3.19 µM | GI50 [53]: 1.68 µM | TGI [53]: 3.05 µM | GI50 [55]: 1.67 µM | TGI [55]: 3.06 µM | GI50 [56]: 1.68 µM | TGI [56]: 3.05 µM | GI50 [57]: 1.81 µM | TGI [57]: 3.34 µM | GI50 [58]: 1.8 µM | TGI [58]: 3.61 µM | GI50 [59]: 1.76 µM | TGI [59]: 3.22 µM
